We go through 2 compounds from patent US10300044B2, “Polymorphic forms of methyl((1S)-1-(((2S)-2-(5-(4′-(2-((2S)-1-((2S)-2-((methoxycarbonyl)amino)-3-methylbutanoyl)-2-pyrrolidinyl)-1H-imidazol-5-yl)-4-biphenylyl)-1H-imidazol-2-yl)-1-pyrrolidinyl)carbonyl)-2-methylpropyl)carbamate and salts thereof” (Cipla Limited, priority 2014, dated 2019).

Molecules are shown by their SMILES. Structures can show the parent of a compound that is named as a salt.

Series [1] in a line: Hygroscopicity. It counts as physicochemical.
The conditions of series [2]: N-1 versus N-2 crystalline dihydrochloride salts; cited from earlier work.

With `COC(=O)N[C@H](C(=O)N1CCC[C@H]1c1ncc(-c2ccc(-c3ccc(-c4cnc([C@@H]5CCCN5C(=O)[C@@H](NC(=O)OC)C(C)C)[nH]4)cc3)cc2)[nH]1)C(C)C` [Form A, methyl((1 S)-1-(((2S)-2-(5-(4′-(2-((2S)-1-((2S)-2-((methoxycarbonyl)amino)-3-methylbutanoyl)-2-pyrrolidinyl)-1H-imidazol-5-yl)-4-biphenylyl)-1H-imidazol-2-yl)-1-pyrrolidinyl)carbonyl)-2-methylpropyl)carbamate], the hygroscopicity entry in series [1] is on record as “substantially non-hygroscopic”.

For the compound `COC(=O)N[C@H](C(=O)N1CCC[C@H]1c1nc(-c2ccc(-c3ccc(-c4c[nH]c([C@@H]5CCCN5C(=O)[C@@H](NC(=O)OC)C(C)C)n4)cc3)cc2)c[nH]1)C(C)C` [Form N-2, methyl((1S)-1-(((2S)-2-(5-(4′-(2-((2S)-1-((2S)-2-((methoxycarbonyl)amino)-3-methylbutanoyl)-2-pyrrolidinyl)-1H-imidazol-5-yl)-4-biphenylyl)-1H-imidazol-2-yl)-1-pyrrolidinyl)carbonyl)-2-methylpropyl) carbamate dihydrochloride], in series [2], the “thermodynamic stability among polymorphs” value was “thermodynamically most stable polymorph”.
